# Assay results reported in patent US4912215A, “Q-1047 Substances” (Yamanouchi Pharmaceutical Co., Ltd., priority 1989, dated 1990).
# What was measured:
# [1] = Superoxide anion scavenging activity (method of McCord and Fridovich, xanthine/xanthine oxidase, ferricytochrome C); assay type: biochemical; conditions: for concentration dependency of superoxide anion scavenging activity: FIG. 30, FIG. 31, FIG. 32; for SOD-like activity of the detected/isolated substance: TLC-detected substance in preparation examples, test not detailed; for IC50 / superoxide anion scavenging activity (in words): pH 7.8, 25° C.; for IC50: xanthine/xanthine oxidase, ferricytochrome C, read-out: concentration of the compound which showed one unit of SOD activity (50% reduction of increase in absorbance at 550 nm); for superoxide anion scavenging activity (in words): same reaction system
# Experimental: The compounds according to the invention were tested for superoxide anion scavenging activity by the method of McCord and Fridovich [J. Biol. Chem., 244 (22), 6049-6055 1969) . Thus, xanthine oxidase was added to 5 ×10^-2 M potassium phosphate buffer (pH 7.8) containing 1 ×10^-4 M EDTA, 1×10^-5 M ferricytochrome C and 5×10^-5 M xanthine to give a reaction system in which the rate of increase in absorbance at 550 nm as determined at 25° C. amounted to 0.025 per minute.
# Solubility = assay type: physicochemical; conditions: for Solubility in dioxane, toluene, benzene, chloroform: toluene (printed tolueno)
# [2] = Basic, neutral or acidic nature; assay type: physicochemical
# [3] = Antioxidant activity (decolorization of DPPH radical); assay type: biochemical; conditions: for reduction of absorbance due to DPPH at 517 nm: 0.1 mM DPPH in ethanol, 30 minutes; for antioxidant activity of the detected/isolated substance: TLC-detected or isolated substance in preparation examples, test not detailed
# Experimental: Generally, substances called antioxidants can decolorize 1,1-diphenyl-2-picrylhydrazyl (DPPH), which is a stable radical.
# Thus, DPPH was dissolved in ethanol to a concentration of 0.1 mM, the test compound was admixed with the solution and, 30 minutes later, the absorbance was determined at 517 nm.
# Acute toxicity in mice = conditions: mouse, in vivo, ip
# [4] = tested on: Puromycin aminonucleoside (PAN) nephrosis rats; assay: Effect on puromycin nephritis (PAN nephrosis rats); assay type: in vivo, Male Sprague-Dawley rats; conditions: 10 mg/kg i.p. daily
# Experimental: Male Sprague-Dawley rats (weighing 180-200 g) were used. Puromycin aminonucleoside (PAN) nephrosis rats were prepared by single intraperitoneal administration of 50 mg/kg of PAN. Throughout the experiment, the rats were fed in metabolic cages and received a solid diet for rats and tap water ad libitum. Urine samples were collected at timed intervals for 24 hours and assayed for protein content. The test drug, suspended in a 0.5% methylcellulose solution, was intraperitoneally administered daily. After the administration period, kidneys were excised, and thin sections were prepared therefrom in the conventional manner and examined microscopically.
SMILES,concentration dependency of superoxide anion scavenging activity [1],SOD-like activity of the detected/isolated substance [1],IC50 [1] [µM],"Solubility in dioxane, chloroform, ethyl acetate, acetonitrile (Solubility)","Solubility in toluene, benzene, ethanol, methanol (Solubility)","Solubility in water, hexane (Solubility)","Basic, neutral or acidic [2]",reduction of absorbance due to DPPH at 517 nm [3],antioxidant activity of the detected/isolated substance [3],LD50 (Acute toxicity in mice) [mg/kg],"Solubility in dioxane, toluene, benzene, chloroform (Solubility)","Solubility in ethyl acetate, acetonitrile, acetone, ethanol, methanol (Solubility)",superoxide anion scavenging activity (in words) [1],"urinary protein level ([4]; PAN 50 mg/kg i.p. single, compared with PAN alone on 7th day)",kidney tissue examination (glomerular changes or abnormalities) ([4]; compared with PAN alone)
CC1=CC(C)C(OC2CCC(O)C(C)O2)C2=CC(=O)C=C(NC(=O)C(C)C(=O)C(C)C1)C2=O (stereo not drawn) [Q-1047-B],dependent on the concentration,SOD-like activity,35,Soluble,sparingly,insoluble,Neutral,–,–,–,–,–,–,–,–
CC1=CC(C)C(OC2CCC(O)C(C)O2)c2cc(O)cc(c2O)NC(=O)C(C)C(=O)C(C)C1 (stereo not drawn) [Q-1047R-A],–,–,–,–,–,insoluble,Neutral,reduced the absorbance due to DPPH,antioxidant activity,> 500,sparingly,Soluble,–,–,–
CC1=CC(C)C(O)C2=CC(=O)C=C(NC(=O)C(C)C(=O)C(C)C1)C2=O (stereo not drawn) [Q-1047H-A-A],concentration-dependent,SOD-like activity,25,Soluble,sparingly,insoluble,Neutral,–,–,–,–,–,have superoxide anion scavenging activity,almost no increase in urinary protein was observed,such changes or abnormalities were lesser in extent and lower in incidence
CC1=CC(C)C(O)c2cc(O)cc(c2O)NC(=O)C(C)C(=O)C(C)C1 (stereo not drawn) [Q-1047H-R-A],–,–,–,–,–,insoluble,Neutral,reduced the absorbance due to DPPH,antioxidant activity,–,sparingly,Soluble,–,–,–
CC1=CC(C)C(O)C2=CC(=O)C=C(NC(=O)C(C)C(=O)C(C)C1)C2=O (stereo not drawn) [Q-1047H-A-B],concentration-dependent,SOD-like activity,22,Soluble,sparingly,insoluble,Neutral,–,–,–,–,–,have superoxide anion scavenging activity,–,–
CC1=CC(C)C(OC2CCC(O)C(C)O2)C2=CC(=O)C=C(NC(=O)C(C)C(=O)C(C)C1)C2=O (stereo not drawn) [Q-1047-A],dependent on the concentration,SOD-like activity,5.6,Soluble,sparingly,insoluble,Neutral,–,–,–,–,–,–,–,–
